Some test systems named below: Bacillus subtilis 168; Escherichia coli B; Pseudomonas aeruginosa; Staphylococcus aureus; Streptococcus mutans; Escherichia coli K-12.
Test in all cases: ≥ marks a high value that may be exact or a test limit, other limits are often not marked, values filed in µg/mL are converted to µM
Assay [1] relates to Candida albicans F7-39/IDE99.
The test system of assay [2] is Micrococcus luteus CCM 144.
The subject of assay [3] is Pseudomonas aeruginosa ATCC 27853.
For assay [4], the system named is Staphylococcus aureus ATCC 6538.
In assay [5] the test system is Staphylococcus aureus USA 300.
Assay [6] relates to Escherichia coli ATCC 25922.
For assay [7], the system named is Pseudomonas aeruginosa Ps4.
In assay [8] the test system is Bacillus subtilis CMCC 63501.
The subject of assay [9] is Enterococcus faecalis ATCC 29212.
Assay [10] deals with Salmonella enterica subsp. enterica serovar Pullorum C79-13.
Assay [11] has as its system Salmonella enterica subsp. enterica serovar Typhimurium C77-31.
For assay [12], the system named is Staphylococcus aureus ATCC 29213.
Assay [13] has as its system Staphylococcus epidermidis ATCC 12228.

SMILES strings stand for the structures. ≈ marks a conversion by molar mass, not a printed value.

On to `CC(C)C[C@H](NC(=O)[C@H](C)NC(=O)CNC(=O)[C@H](Cc1c[nH]c2ccccc12)NC(=O)[C@H](CC(N)=O)NC(=O)[C@@H](N)CC(C)C)C(=O)N[C@@H](CC(C)C)C(=O)N[C@@H](CCCCN)C(=O)N[C@@H](Cc1cnc[nH]1)C(=O)N[C@@H](CC(C)C)C(=O)N[C@@H](CC(C)C)C(=O)N[C@@H](CCCCN)C(N)=O` [LNWGALLKHLLK], for which the MIC against Bacillus subtilis 168 was 1.6 µM (≈ 2.25 µg/mL); in assay [1] it was 6.7 µM (≈ 9.41 µg/mL); against Escherichia coli B, 3.8 µM (≈ 5.34 µg/mL); in [2] it was 2.2 µM (≈ 3.09 µg/mL); against Pseudomonas aeruginosa it was 40 µM (≈ 56.2 µg/mL); in the assay with Staphylococcus aureus, 6.7 µM (≈ 9.41 µg/mL).

Consider `CC(C)C[C@H](NC(=O)[C@H](C)NC(=O)[C@H](CCC(=O)O)NC(=O)[C@H](CCCCN)NC(=O)[C@H](C)NC(=O)[C@H](CCC(=O)O)NC(=O)[C@H](Cc1cnc[nH]1)NC(=O)[C@H](CC(C)C)NC(=O)[C@H](C)NC(=O)[C@@H](N)CCCN=C(N)N)C(=O)N[C@@H](CCCCN)C(=O)O` [RALHEAKEALK], for which the MIC with Streptococcus mutans is no less than 198 µM.

Consider `CC[C@H](C)[C@H](NC(=O)[C@H](CCCCN)NC(=O)[C@H](CC(N)=O)NC(=O)[C@H](CCCN=C(N)N)NC(=O)[C@@H](NC(=O)[C@H](CC(N)=O)NC(=O)[C@H](CCCN=C(N)N)NC(=O)[C@@H](NC(=O)[C@H](CCSC)NC(=O)[C@H](CCCCN)NC(=O)[C@H](CCC(=O)O)NC(=O)[C@@H](NC(=O)[C@H](CCCCN)NC(=O)[C@H](CCCCN)NC(=O)[C@H](Cc1ccccc1)NC(=O)[C@@H](NC(=O)[C@H](CCCCN)NC(=O)[C@H](Cc1c[nH]c2ccccc12)NC(=O)[C@@H](N)CCCCN)C(C)C)[C@@H](C)CC)[C@@H](C)CC)[C@@H](C)CC)C(=O)N[C@@H](C)C(=O)N[C@@H](CCCCN)C(N)=O` [KWKVFKKIEKMIRNIRNKIAK], for which the MIC with Escherichia coli K-12 was 3 µM (≈ 8.01 µg/mL); in assay [3], greater than 3 µM; in [4], greater than 6 µM.

Consider `CC[C@H](C)[C@H](NC(=O)[C@H](CC(C)C)NC(=O)[C@@H]1CCCN1C(=O)[C@H](Cc1ccccc1)NC(=O)[C@H](CC(C)C)NC(=O)[C@@H](N)Cc1ccccc1)C(=O)N[C@H](C(=O)N[C@@H](CO)C(=O)N[C@@H](Cc1ccccc1)C(=O)N[C@@H](CC(C)C)C(=O)N[C@@H](CO)C(=O)N[C@@H](CCCCN)C(=O)N[C@H](C(=O)N[C@@H](CC(C)C)C(=O)O)C(C)C)[C@@H](C)O` [FLFPLITSFLSKVL], for which the MIC against Escherichia coli K-12 was no less than 100 µM; in [5], no less than 50 µM; against Staphylococcus aureus, 130 µM (≈ 211 µg/mL).

For the compound `NC(=O)[C@H](Cc1ccccc1)NC(=O)[C@H](CCCN=C(N)N)NC(=O)[C@H](Cc1cnc[nH]1)NC(=O)[C@H](Cc1ccccc1)NC(=O)[C@H](Cc1c[nH]c2ccccc12)NC(=O)[C@H](Cc1cnc[nH]1)NC(=O)[C@H](Cc1c[nH]c2ccccc12)NC(=O)[C@H](Cc1ccccc1)NC(=O)[C@H](Cc1ccc(O)cc1)NC(=O)[C@H](Cc1cnc[nH]1)NC(=O)[C@@H](N)Cc1ccccc1` [FHYFWHWFHRF], the MIC with Streptococcus mutans is no less than 73.1 µM.

As to `CC(C)C[C@H](NC(=O)CN)C(=O)N[C@@H](CCCCN)C(=O)N[C@@H](CCCCN)C(=O)N[C@@H](CC(C)C)C(=O)N[C@@H](CC(C)C)C(=O)NCC(=O)N[C@@H](CCCCN)C(=O)N[C@@H](CC(C)C)C(=O)N[C@@H](CC(C)C)C(=O)N[C@@H](CCCCN)C(=O)N[C@@H](CCCCN)C(=O)N[C@@H](CC(C)C)C(=O)NCC(=O)N[C@@H](CCCCN)C(=O)N[C@@H](CC(C)C)C(=O)N[C@@H](CC(C)C)C(=O)N[C@@H](CC(C)C)C(=O)N[C@@H](CCCCN)C(=O)O` [GLKKLLGKLLKKLGKLLLK], the MIC in the assay on Escherichia coli K-12 was 10 µM (≈ 21 µg/mL); in assay [5], no less than 160 µM.

Regarding `CC(C)C[C@H](NC(=O)[C@H](CCCCN)NC(=O)[C@H](CCCCN)NC(=O)[C@@H](N)C(C)C)C(=O)N[C@@H](C)C(=O)N[C@@H](CCCCN)C(=O)N[C@@H](CC(C)C)C(=O)N[C@H](C(=O)N[C@@H](CCCN=C(N)N)C(=O)N[C@@H](CCCN=C(N)N)C(=O)N[C@@H](Cc1ccccc1)C(N)=O)C(C)C` [VKKLAKLVRRF], in the assay with Streptococcus mutans, the minimal inhibitory concentration (MIC) was determined as 16.7 µM (≈ 22.6 µg/mL).

As to `CC(C)C[C@H](NC(=O)[C@H](CC(C)C)NC(=O)[C@H](Cc1cnc[nH]1)NC(=O)[C@H](Cc1cnc[nH]1)NC(=O)[C@H](CC(C)C)NC(=O)[C@H](CCCCN)NC(=O)[C@H](CCCCN)NC(=O)[C@H](CC(C)C)NC(=O)[C@H](CC(C)C)NC(=O)[C@H](CCCN=C(N)N)NC(=O)[C@H](CCCN=C(N)N)NC(=O)[C@H](Cc1c[nH]c2ccccc12)NC(=O)[C@H](CCCN=C(N)N)NC(=O)CNC(=O)CNC(=O)CNC(=O)[C@H](Cc1ccccc1)NC(=O)[C@H](CCCN=C(N)N)NC(=O)[C@H](CCCN=C(N)N)NC(=O)[C@H](Cc1ccccc1)NC(=O)[C@H](Cc1c[nH]c2ccccc12)NC(=O)[C@H](CCCCN)NC(=O)[C@H](Cc1c[nH]c2ccccc12)NC(=O)[C@H](Cc1ccccc1)NC(=O)[C@H](CCCCN)NC(=O)[C@H](CCCCN)NC(=O)[C@@H](N)Cc1ccccc1)C(=O)N[C@@H](Cc1cnc[nH]1)C(N)=O` [FKKFWKWFRRFGGGRWRRLLKKLHHLLH], the MIC against Streptococcus mutans turned out to be 4.28 µM (≈ 16 µg/mL).

`CC[C@H](C)[C@H](NC(=O)[C@H](CCCCN)NC(=O)[C@H](CCC(N)=O)NC(=O)[C@@H](NC(=O)[C@@H](NC(=O)[C@H](CCCCN)NC(=O)[C@H](CCCCN)NC(=O)[C@H](Cc1ccccc1)NC(=O)[C@H](CCC(=O)O)NC(=O)CN)[C@@H](C)CC)C(C)C)C(=O)N[C@@H](CCCCN)C(=O)N[C@@H](CC(=O)O)C(=O)N[C@@H](Cc1ccccc1)C(=O)N[C@@H](CC(C)C)C(=O)N[C@@H](CCCCN)C(=O)N[C@@H](CC(N)=O)C(=O)N[C@@H](CC(C)C)C(=O)N[C@H](C(N)=O)C(C)C` [GEFKKIVQKIKDFLKNLV]: the MIC against Escherichia coli K-12 is no less than 60 µM; in [5], no less than 120 µM.

As to `CCC(C)C(NC(=O)C(CC(N)=O)NC(=O)C(CCCN=C(N)N)NC(=O)C(CCC(N)=O)NC(=O)C(Cc1c[nH]c2ccccc12)NC(=O)C(CCC(N)=O)NC(=O)C(N)Cc1ccccc1)C(=O)NC(CCCN=C(N)N)C(=O)NC(CCCCN)C(=O)NC(C(=O)NC(CCCN=C(N)N)C(N)=O)C(C)C` (configuration not stated) [FQWQRNIRKVR], the minimum inhibitory concentration (MIC) in assay [6] was greater than 163 µM; in [7], no less than 163 µM.

Turning to `CC[C@H](C)[C@H](NC(=O)[C@H](Cc1cnc[nH]1)NC(=O)[C@H](CCCCN)NC(=O)[C@H](CC(C)C)NC(=O)[C@H](CCCCN)NC(=O)[C@H](C)NC(=O)CNC(=O)[C@H](Cc1c[nH]c2ccccc12)NC(=O)[C@H](CC(N)=O)NC(=O)[C@@H](N)CC(C)C)C(=O)N[C@H](C(=O)N[C@@H](CCCCN)C(N)=O)[C@@H](C)CC` [LNWGAKLKHIIK], the MIC with Bacillus subtilis 168 is no less than 55.8 µM; in [1] it was no less than 50 µM; against Escherichia coli B, no less than 100 µM; in assay [2] it was no less than 38.8 µM; against Pseudomonas aeruginosa, greater than 100 µM; with Staphylococcus aureus, greater than 100 µM.

Consider `CC[C@H](C)[C@H](NC(=O)[C@H](C)NC(=O)CNC(=O)[C@H](Cc1c[nH]c2ccccc12)NC(=O)[C@H](CC(N)=O)NC(=O)[C@@H](N)CC(C)C)C(=O)N[C@@H](CC(C)C)C(=O)N[C@@H](CCCCN)C(=O)N[C@@H](Cc1cnc[nH]1)C(=O)N[C@@H](CCCCN)C(=O)N[C@H](C(=O)N[C@@H](CCCCN)C(N)=O)[C@@H](C)CC` [LNWGAILKHKIK], for which the minimum inhibitory concentration (MIC) was no less than 41.7 µM against Bacillus subtilis 168; no less than 100 µM in assay [1]; no less than 100 µM against Escherichia coli B; 30 µM (≈ 42.6 µg/mL) in assay [2]; greater than 100 µM with Pseudomonas aeruginosa; greater than 100 µM in the assay with Staphylococcus aureus.

Consider `NC(=O)[C@H](Cc1c[nH]c2ccccc12)NC(=O)[C@H](CCCN=C(N)N)NC(=O)[C@H](CS)NC(=O)[C@H](Cc1ccccc1)NC(=O)[C@H](CCCN=C(N)N)NC(=O)[C@H](CCCN=C(N)N)NC(=O)[C@H](CCCN=C(N)N)NC(=O)[C@H](CS)NC(=O)[C@H](CCCN=C(N)N)NC(=O)[C@@H](N)Cc1c[nH]c2ccccc12` [WRCRRRFCRW], for which the MIC in [8] is 2 µM (≈ 3.05 µg/mL); in assay [9], 8 µM (≈ 12.2 µg/mL); in [6], 2 µM (≈ 3.05 µg/mL); in assay [3] it was greater than 128 µM; in [10] it was 4 µM (≈ 6.1 µg/mL); in [11], 16 µM (≈ 24.4 µg/mL). For the same compound, the MIC in [12] and in assay [13] was 8 µM (≈ 12.2 µg/mL) throughout.

The values are drawn from DBAASP.
